Experimental data from US8431541B2, “Alpha-amylase inhibitors: the montbretins and uses thereof” (The University of British Columbia, priority 2007, dated 2013).

Assays:
[1] = biological target: T1, human pancreatic α-amylase (HPA) (Homo sapiens, UniProt P04746); test: Kinetic analysis of HPA inhibition; assay type: biochemical
T1 sequence (P04746 16-511): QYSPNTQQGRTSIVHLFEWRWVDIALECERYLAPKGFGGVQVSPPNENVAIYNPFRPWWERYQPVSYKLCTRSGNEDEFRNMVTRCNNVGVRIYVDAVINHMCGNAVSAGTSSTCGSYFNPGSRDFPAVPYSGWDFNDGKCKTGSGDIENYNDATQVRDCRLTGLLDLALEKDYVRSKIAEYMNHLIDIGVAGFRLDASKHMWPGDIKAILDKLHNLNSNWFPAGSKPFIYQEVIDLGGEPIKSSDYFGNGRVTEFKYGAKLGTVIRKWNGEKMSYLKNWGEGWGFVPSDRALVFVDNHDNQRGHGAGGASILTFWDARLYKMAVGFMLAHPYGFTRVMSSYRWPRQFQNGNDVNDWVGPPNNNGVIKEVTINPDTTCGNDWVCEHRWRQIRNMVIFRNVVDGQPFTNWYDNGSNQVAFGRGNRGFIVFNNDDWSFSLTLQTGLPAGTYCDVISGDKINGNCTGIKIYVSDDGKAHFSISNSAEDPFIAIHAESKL

[2] = biological target: T2, α-amylase (HPA) (Homo sapiens, UniProt P04746); test: Glycosidase specificity: α-amylase; assay type: biochemical; settings: at 0.1 μM Montbretin A; read-out: RA (%), Residual Enzyme Activity
T2 sequence (P04746 16-511): T1 sequence (P04746 16-511)

[3] = biological target: T3, α-mannosidase (Jack Bean) (Canavalia ensiformis, UniProt C0HJB3); test: Glycosidase specificity: α-mannosidase; assay type: biochemical; settings: at 0.1 μM Montbretin A; read-out: RA (%), Residual Enzyme Activity
T3 sequence (C0HJB3 1-981): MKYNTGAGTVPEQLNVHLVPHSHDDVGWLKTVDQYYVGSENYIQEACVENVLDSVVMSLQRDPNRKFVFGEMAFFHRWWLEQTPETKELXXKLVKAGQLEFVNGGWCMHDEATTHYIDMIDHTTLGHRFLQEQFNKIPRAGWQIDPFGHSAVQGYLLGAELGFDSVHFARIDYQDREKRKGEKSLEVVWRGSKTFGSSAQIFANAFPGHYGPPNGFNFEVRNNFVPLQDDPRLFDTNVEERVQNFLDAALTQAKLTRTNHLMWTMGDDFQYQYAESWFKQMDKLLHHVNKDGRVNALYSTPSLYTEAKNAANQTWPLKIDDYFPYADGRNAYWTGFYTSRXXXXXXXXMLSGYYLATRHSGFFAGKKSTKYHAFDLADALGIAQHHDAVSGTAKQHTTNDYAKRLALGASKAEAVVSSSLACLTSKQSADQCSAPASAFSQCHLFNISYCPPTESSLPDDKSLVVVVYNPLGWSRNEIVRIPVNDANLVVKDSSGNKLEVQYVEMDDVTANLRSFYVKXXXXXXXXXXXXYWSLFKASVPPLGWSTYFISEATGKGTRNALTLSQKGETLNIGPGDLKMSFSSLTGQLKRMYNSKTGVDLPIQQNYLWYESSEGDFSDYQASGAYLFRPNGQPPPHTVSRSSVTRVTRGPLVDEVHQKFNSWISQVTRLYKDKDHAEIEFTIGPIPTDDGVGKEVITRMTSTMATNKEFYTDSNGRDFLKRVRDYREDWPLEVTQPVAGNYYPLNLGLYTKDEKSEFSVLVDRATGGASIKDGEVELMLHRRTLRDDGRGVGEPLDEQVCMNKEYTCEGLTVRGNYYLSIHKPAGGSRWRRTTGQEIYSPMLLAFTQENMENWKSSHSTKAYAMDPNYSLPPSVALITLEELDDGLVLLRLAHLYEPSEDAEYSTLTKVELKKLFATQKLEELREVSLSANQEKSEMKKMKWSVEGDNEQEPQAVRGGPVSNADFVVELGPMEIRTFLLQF

[4] = biological target: α-galactosidase (Green Coffee Beans) (Coffea arabica, UniProt Q42656); test: Glycosidase specificity: α-galactosidase; assay type: biochemical; settings: at 0.1 μM Montbretin A; read-out: RA (%), Residual Enzyme Activity
[5] = Stability in simulated intestinal fluid (SIF) by UPLC; assay type: in vitro ADME; settings: SIF pH 6.89, 37° C., within 3 hours
Protocol: The stability of montbretin A in both simulated intestinal fluid (SIF) and simulated gastric fluid (SGF) were analyzed via ultra performance liquid chromatography (UPLC). The instrument consisted of a Waters® Acquity™ UPLC system equipped with a PDA and a TQ detector in tandem. The 2 μL sample injection volume was passed through a Waters® Acquity™ BEH C18 column (1.7 μm, 2.1×100 mm), with mobile phases A and B consisting of water with 0.1% formic acid and acetonitrile with 0.1% formic acid, respectively. The mobile phases were delivered at a programmed linear gradient at a column temperature of 35° C. Linearity was evaluated using a set of montbretin A calibration standards with concentrations ranging from 10 to 100 μg/mL in water. […]
To examine the gastrointestinal fluid activity, 0.5 mg/ml solutions of oleamide (positive control) in SGF or SIF were prepared by diluting a 100 μL aliquot of oleamide (50 mg/mL in 2-propanol) to 10 mL with either SGF or SIF and incubated in a 37° C. water bath for 1 or 3 hours, respectively. At time points of 1 or 3 hours, the sample was removed from the water bath and a 100 μL aliquot of the resulting solution was diluted to 1 mL with de-ionized water in a glass UPLC glass sample vial and analyzed by UPLC for oleamide content. […]

Chain of α-galactosidase (Green Coffee Beans) (Q42656 16-378): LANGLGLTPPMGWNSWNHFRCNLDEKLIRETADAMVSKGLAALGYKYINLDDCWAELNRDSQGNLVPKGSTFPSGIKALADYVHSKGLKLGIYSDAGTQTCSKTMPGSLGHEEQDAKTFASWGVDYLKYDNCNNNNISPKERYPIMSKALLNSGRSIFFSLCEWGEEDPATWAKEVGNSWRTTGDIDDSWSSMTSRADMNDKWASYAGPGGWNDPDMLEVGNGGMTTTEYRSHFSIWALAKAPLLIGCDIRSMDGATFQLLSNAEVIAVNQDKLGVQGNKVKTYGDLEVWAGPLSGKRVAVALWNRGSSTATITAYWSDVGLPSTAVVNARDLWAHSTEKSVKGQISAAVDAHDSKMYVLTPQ

CC1O[C@@H](O[C@@H]2CO[C@@H](Oc3c(O)cc(-c4oc5cc(O)cc(O)c5c(=O)c4O[C@@H]4OC(C)[C@H](O)[C@H](O)C4O[C@@H]4OC(COC(=O)/C=C/c5ccc(O)c(O)c5)[C@@H](O)[C@@H](O)C4O[C@@H]4OC(CO)[C@@H](O)[C@@H](O)C4O)cc3O)C(O)[C@@H]2O)C(O)[C@@H](O)[C@H]1O (some centres unmarked) [Montbretin A, montbretin A]
mode of inhibition of HPA ([1]; double reciprocal plot): competitive
effect of calcium on HPA inhibition ([1]; presence of 1 mM calcium chloride): no change in inhibition
effect of DTT on HPA inhibition ([1]; presence vs absence of 5 mM dithiothreitol): No effect
Ki ([1]; varied substrate and inhibitor concentrations, GraFit): 8.1 ± 0.5 nM
remaining activity at 0.1 µM [2]: 11%
remaining activity at 0.1 µM [3]: 100%
remaining activity at 0.1 µM [4]: 100%
degradation in SIF [5]: no significant degradation
